# Measured values taken from patent publication US6472418B1, “Non-peptide NK1 receptors antagonists” (Warner-Lambert Company, priority 1998, dated 2002).
# Target: T1, Human NK1 Receptor (Homo sapiens, UniProt P25103)
# T1 construct: endogenous in cells; host or cells: Human lymphoma IM9 cells (whole cells)
# Experiment: In Vitro Human NK1 Receptor Binding Assay ([125I]Bolton-Hunter substance P displacement, IM9 cells)
# Conditions: Human lymphoma IM9 cells, [125I]Bolton-Hunter substance P; Table 3, array-synthesis products; read-out: IC50 (nM) hNK1
# Description: They have been evaluated in an NK1-receptor binding assay which is described below.
# Human lymphoma IM9 cells were grown in RPMI 1640 culture medium supplemented with 10% fetal calf serum and 2 mM glutamine and maintained under an atmosphere of 5% CO2. Cells were passaged every 3-4 days by reseeding to a concentration of 4-8×10^6/40 ml per 175 cm^2 flask. Cells were harvested for experiments by centrifugation at 1000 g for 3 min. Pelleted cells were washed once by resuspension into assay buffer (50 mM Tris HCl pH 7.4, 3 mM MnCl2, 0.02% BSA, […] bacitracin, […] chymostatin, 2 mM phosphoramidon, […] leupeptin) and repeating the centrifugation step before resuspending at a concentration of 2.5×10^6 cells/mL assay buffer. Cells ([…]) were incubated with [^125I]Bolton-Hunter substance P (0.05-0.1 nM) in the presence and absence of varying concentrations of test compounds for 50 min at 21° C. Non-specific binding (10% of the total binding observed under these conditions) was defined by […] [Sar^9, Met(02)^11] substance P. Reactions were terminated by rapid filtration under vacuum onto GF\C filters presoaked in 0.2% PEI for 1-2 h, using a Brandel cell harvester. Filters were washed with 6×1 ml ice-cold Tris HCl (50 mM, pH 7.4) and radioactivity bound determined using a gamma couter. Results were analyzed using iterative curve fitting procedures in RS1 or Graphpad Inplot.
# T1 sequence (P25103 whole entry): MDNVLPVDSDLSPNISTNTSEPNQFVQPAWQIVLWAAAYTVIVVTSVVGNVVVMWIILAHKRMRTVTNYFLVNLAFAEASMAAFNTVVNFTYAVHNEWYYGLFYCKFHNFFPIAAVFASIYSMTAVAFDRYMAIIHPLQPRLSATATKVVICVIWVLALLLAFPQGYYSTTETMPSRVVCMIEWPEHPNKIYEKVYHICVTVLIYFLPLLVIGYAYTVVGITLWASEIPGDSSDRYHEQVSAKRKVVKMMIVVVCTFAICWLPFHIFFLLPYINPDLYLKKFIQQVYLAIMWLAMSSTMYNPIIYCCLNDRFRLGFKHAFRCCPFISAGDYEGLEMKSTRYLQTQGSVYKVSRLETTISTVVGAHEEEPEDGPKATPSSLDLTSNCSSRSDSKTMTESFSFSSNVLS
row,IC50,Molecule
1,> 10000 nM,"O=C(NCc1ccc([N+](=O)[O-])o1)C(Cc1c[nH]c2ccccc12)NCc1cc2ccccc2o1 (stereo not drawn) [Example 216, 2-[(Benzofuran-2-ylmethyl)-amino]-3-(1H-indol-3-yl)-N-(5-nitro-furan-2-ylmethyl)-propionamide]"
2,> 10000 nM,"O=C(NCCCn1ccnc1)C(Cc1c[nH]c2ccccc12)NCc1cc2ccccc2o1 (stereo not drawn) [Example 201, 2-[(Benzofuran-2-ylmethyl)-amino]-N-(3-imidazol-1-yl-propyl)-3-(1H-indol-3-yl)-propionamide]"
3,1130 nM,"O=C(NCc1ccccc1C(F)(F)F)C(Cc1c[nH]c2ccccc12)NCc1cc2ccccc2o1 (stereo not drawn) [Example 292, 2-[(Benzofuran-2-ylmethyl)-amino]-3-(1H-indol-3-yl)-N-(2-trifluoromethyl-benzyl)-propionamide]"
4,9 nM,"COc1ccc(C(C)NC(=O)C(Cc2c[nH]c3ccccc23)NCc2cc3ccccc3o2)cc1 (stereo not drawn) [Example 255, 2-[(Benzofuran-2-ylmethyl)-amino]-3-(1H-indol-3-yl)-N-[1-(4-methoxy-phenyl)-ethyl]-propionamide]"
5,256 nM,"Cc1ccc(CCNC(=O)C(Cc2c[nH]c3ccccc23)NCc2cc3ccccc3o2)cc1 (stereo not drawn) [Example 300, 2-[(Benzofuran-2-ylmethyl)-amino]-3-(1H-indol-3-yl)-N-(2-p-tolyl-ethyl)-propionamide]"
6,833 nM,"CC(Cc1ccc(Cl)cc1)NC(=O)C(Cc1c[nH]c2ccccc12)NCc1cc2ccccc2o1 (stereo not drawn) [Example 282, 2-[(Benzofuran-2-ylmethyl)-amino]-N-[2-(4-chloro-phenyl)-1-methyl-ethyl]-3-(1H-indol-3-yl)-propionamide]"
7,136 nM,"O=C(NCCc1ccc(Cl)cc1)C(Cc1c[nH]c2ccccc12)NCc1cc2ccccc2o1 (stereo not drawn) [Example 288, 2-[(Benzofuran-2-ylmethyl)-amino]-N-[2-(4-chloro-phenyl)-ethyl]-3-(1H-indol-3-yl)-propionamide]"
8,6680 nM,"O=C(NCCc1c[nH]cn1)C(Cc1c[nH]c2ccccc12)NCc1cc2ccccc2o1 (stereo not drawn) [Example 206, 2-[(Benzofuran-2-ylmethyl)-amino]-N-[2-(1H-imidazol-4-yl)-ethyl]-3-(1H-indol-3-yl)-propionamide]"
9,> 10000 nM,"O=C(NCCN1CCCC1)C(Cc1c[nH]c2ccccc12)NCc1cc2ccccc2o1 (stereo not drawn) [Example 222, 2-[(Benzofuran-2-ylmethyl)-amino]-3-(1H-indol-3-yl)-N-(2-pyrrolidin-1-yl-ethyl)-propionamide]"

# Same assay, conditions: Table 4; [125I]Bolton-Hunter substance P displacement, human IM9 cells; read-out: IC50 (nM) hNK1
row,IC50,Molecule
1,> 10000 nM,"CC(NC(=O)C(C)(Cc1c[nH]c2ccccc12)NCc1ccc(OCCCC(C)(C)C(=O)O)cc1)c1ccccc1 (stereo not drawn) [compound 327, 5-(4-{[2-(1H-Indol-3-yl)-1-methyl-1-(1-phenyl-ethylcarbamoyl)-ethylamino]-methyl}-phenoxy)-2,2-dimethyl-pentanoic acid]"
2,4940 nM,"CC(NC(=O)C(C)(Cc1c[nH]c2ccccc12)NCC(Cc1ccccc1)c1ccccc1)c1ccccc1 (stereo not drawn) [compound 332, 2-(2,3-Diphenyl-propylamino)-3-(1H-indol-3-yl)-2-methyl-N-(1-phenyl-ethyl)-propionamide]"
3,> 10000 nM,"CC(C)C=CCC1=CCC(CNC(C)(Cc2c[nH]c3ccccc23)C(=O)NC(C)c2ccccc2)CC1 (stereo not drawn) [compound 328, 3-(1H-Indol-3-yl)-2-methyl-2-{[4-(4-methyl-pent-2-enyl)-cyclohex-3-enylmethyl]-amino}-N-(1-phenyl-ethyl)-propionamide]"
4,91 nM,"CC(NC(=O)C(C)(Cc1c[nH]c2ccccc12)NCC=Cc1ccco1)c1ccccc1 (stereo not drawn) [compound 322, 2-(3-Furan-2-yl-allylamino)-3-(1H-indol-3-yl)-2-methyl-N-(1-phenyl-ethyl)-propionamide]"
5,> 10000 nM,"COc1ccc2oc(CNC(C)(Cc3c[nH]c4ccccc34)C(=O)NC(C)c3ccccc3)cc2c1 (stereo not drawn) [compound 317, 3-(1H-Indol-3-yl)-2-[(5-methoxy-benzofuran-2-ylmethyl)-amino]-2-methyl-N-(1-phenyl-ethyl)-propionamide]"

row,Molecule,IC50
1,2-(4-Benzyloxy-benzylamino)-3-(1H-indol-3-yl)-2-methyl-N-(1-phenyl-ethyl)-propionamide [compound 341],> 10000 nM
2,3-(1H-Indol-3-yl)-2methyl-N-(1-phenyl-ethyl)-2-[(1-phenyl-1H-indol-2-ylmethyl)-amino]-propionamide [compound 333],3610 nM

# Same assay, conditions: Table 5; [125I]Bolton-Hunter substance P displacement, human IM9 cells; read-out: IC50 (nM) hNK1
row,IC50,Molecule
1,1910 nM,COC(=O)c1ccc(CNC(Cc2c[nH]c3ccccc23)C(=O)NC(C)c2ccccc2)cc1 (stereo not drawn) [compound 374]
2,593 nM,CC(NC(=O)C(Cc1c[nH]c2ccccc12)NCC=Cc1ccc2c(c1)OCO2)c1ccccc1 (stereo not drawn) [compound 377]

# Same assay, conditions: human NK1 receptor, IM9 cells, [125I]Bolton-Hunter substance P; read-out: IC50 (nM) hNK1
row,IC50,Molecule
1,266 nM,"CC(Cc1c[nH]c2ccccc12)(NCc1cc2ccccc2o1)C(=O)NCc1ccccc1F (stereo not drawn) [compound 180, 2-[(Benzofuran-2-ylmethyl)-amino]-N-(2-fluoro-benzyl)-3-(1H-indol-3-yl)-2-methyl-propionamide]"
2,> 10000 nM,"CC(Cc1c[nH]c2ccccc12)(NCc1cc2ccccc2o1)C(=O)NC1(c2cccs2)CCCCC1 (stereo not drawn) [compound 160, 2-[(Benzofuran-2-ylmethyl)-amino]-3-(1H-indol-3-yl)-2-methyl-N-(1-thiophen-2-yl-cyclohexyl)-propionamide]"
3,4150 nM,"CC(Cc1c[nH]c2ccccc12)(NCc1cc2ccccc2o1)C(=O)NC1CC1c1ccccc1 (stereo not drawn) [compound 107, 2-[(Benzofuran-2-ylmethyl)-amino]-3-(1H-indol-3-yl)-2-methyl-N-(2-phenyl-cyclopropyl)-propionamide]"
4,> 10000 nM,"CC(Cc1c[nH]c2ccccc12)(NCc1cc2ccccc2o1)C(=O)NCC(=O)N1CCOCC1 (stereo not drawn) [compound 173, 2-[(Benzofuran-2-ylmethyl)-amino]-3-(1H-indol-3-yl)-2-methyl-N-(2-morpholin-4-yl-2-oxo-ethyl)-propionamide]"
5,> 10000 nM,"CC(Cc1c[nH]c2ccccc12)(NCc1cc2ccccc2o1)C(=O)NCC1(O)CCCCC1 (stereo not drawn) [compound 116, 2-[(Benzofuran-2-ylmethyl)-amino]-N-(1-hydroxy-cyclohexylmethyl)-3-(1H-indol-3-yl)-2-methyl-propionamide]"
6,1140 nM,"CC(NC(=O)C(C)(Cc1c[nH]c2ccccc12)NCc1cc2ccccc2o1)C(C)(C)C (stereo not drawn) [compound 82, 2-[(Benzofuran-2-ylmethyl)-amino]-3(1H-indol-3-yl)-2-methyl-N-(1,2,2-trimethyl-propyl)-propionamide]"
7,> 10000 nM,"CC(Cc1c[nH]c2ccccc12)(NCc1cc2ccccc2o1)C(=O)NCC1CC2CCC1C2 (stereo not drawn) [compound 165, 2-[(Benzofuran-2-ylmethyl)-amino]-N-bicyclo[2.2.1]hept-2-ylmethyl-3-(1H-indol-3-yl)-2-methyl-propionamide]"
8,96 nM,"CC(Cc1c[nH]c2ccccc12)(NCc1cc2ccccc2o1)C(=O)NCc1ccc(Cl)c(Cl)c1 (stereo not drawn) [compound 175, 2-[(Benzofuran-2-ylmethyl)-amino]-N-(3,4-dichloro-benzyl)-3-(1H-indol-3-yl)-2-methyl-propionamide]"
9,1060 nM,"CC(NC(=O)C(C)(Cc1c[nH]c2ccccc12)NCc1cc2ccccc2o1)c1cccc(N(C)C)c1 (stereo not drawn) [compound 40, 2-[(Benzofuran-2-ylmethyl)-amino)-N-[1-(3-dimethylamino-phenyl)-ethyl]-3-(1H-indol-3-yl)-2-methyl-propionamide]"
10,> 10000 nM,"CC(Cc1c[nH]c2ccccc12)(NCc1cc2ccccc2o1)C(=O)NC1CCCc2ccccc21 (stereo not drawn) [compound 148, 2-[(Benzofuran-2-ylmethyl)-amino]-3-(1H-indol-3-yl)-2-methyl-N-(1,2,3,4-tetrahydro-naphthalen-1-yl)-propionamide]"
11,> 10000 nM,"CC(Cc1c[nH]c2ccccc12)(NCc1cc2ccccc2o1)C(=O)NCCc1ccc(O)cc1 (stereo not drawn) [compound 143, 2-[(Benzofuran-2-ylmethyl)-amino]-N-[2-(4-hydroxy-phenyl)-ethyl]-3-(1H-indol-3-yl)-2-methyl-propionamide]"
12,84 nM,"CC(Cc1c[nH]c2ccccc12)(NCc1cc2ccccc2o1)C(=O)NCc1ccccc1O (stereo not drawn) [compound 186, 2-[(Benzofuran-2-ylmethyl)-amino]-N-(2-hydroxy-benzyl)-3-(1H-indol-3-yl)-2-methyl-propionamide]"
13,> 10000 nM,"CC(Cc1cccc(C(F)(F)F)c1)NC(=O)C(C)(Cc1c[nH]c2ccccc12)NCc1cc2ccccc2o1 (stereo not drawn) [compound 79, 2-[(Benzofuran-2-ylmethyl)-amino]-3-(1H-indol-3-yl)-2-methyl-N-[1-methyl-2-(3-trifluoromethyl-phenyl)-ethyl]-propionamide]"
14,547 nM,"CC(Cc1c[nH]c2ccccc12)(NCc1cc2ccccc2o1)C(=O)NCc1cccnc1 (stereo not drawn) [compound 24, 2-[(Benzofuran-2-ylmethyl)-amino]-3-(1H-indol-3-yl)-2-methyl-N-pyridin-3-ylmethyl-propionamide]"

row,Molecule,IC50
1,"CC(Cc1c[nH]c2ccccc12)(NCc1cc2ccccc2o1)C(=O)NCc1cc(Cl)sc1Cl (stereo not drawn) [compound 109, 2-[(Benzofuran-2-ylmethyl)-amino]-N-(2,5-dichloro-thiophen-3-ymethyl)-3-(1H-indol-3-yl)-2-methyl-propionamide]",279 nM
